According to article PMC9926234, “Iterative computational design and crystallographic screening identifies potent inhibitors targeting the Nsp3 macrodomain of SARS-CoV-2” (Proceedings of the National Academy of Sciences of the …, 2023):

Key:
SARS-CoV-2 NSP3 Mac1 [1] = target: T1, SARS-CoV-2 NSP3 Mac1 (Severe acute respiratory syndrome coronavirus 2, UniProt P0DTD1); type: binding; parameters: contains a conserved macrodomain enzyme (Mac1); conditions: maximal thermal upshift vs DMSO control
Method: DSF and associated compound handling was performed as described ([12]), with 5 µM dye “Fluorescent Yellow” (Jacquard iDye Cat #JID1405) used in place of SYPRO Orange. Compounds were tested in triplicate, at seven concentrations in two-fold serial dilutions, at a top concentration of either 1,000 or 100 μM. To minimize experimental noise arising from plate location-based effects on Tma, all concentrations and replicates for each compound were tested within a single region of the microtiter plates, including a DMSO-only control from which ΔTmas were calculated for that compound. […] For each compound, to determine statistical significance of the dose responsive thermal shift, the Spearman’s coefficient was calculated between compound concentration and ΔTma.

SARS-CoV-2 NSP3 Mac1 [2] = target: T1, SARS-CoV-2 NSP3 Mac1; type: binding; conditions: true hit = binding in crystallographic soaking or the HTRF-based binding assay

Compound	DSF max dTma (SARS-CoV-2 NSP3 Mac1 [1]) [°C]	HIT* (SARS-CoV-2 NSP3 Mac1 [2])
Cc1oc(-c2cccs2)nc1Cc1nc(-c2cncnc2N)no1 [Z3789]	0.56	–
Cc1cc(-n2cncn2)ccc1C(=O)OCC1OCCc2ccccc21 (centres unmarked) [Z3896]	0.63	–
Cc1ccccc1CC(C)c1nc(-c2cc(N)ncn2)no1 (centres unmarked) [Z4066]	0.98	–
CC(C(=O)N1CCCC1c1nc(C(N)=O)no1)c1cccc(F)c1 (centres unmarked) [Z4135]	0.15	–
O=C(c1cccc(O)c1)N1CC=C(c2ccccc2)C1 [Z4141]	0.71	–
O=C(c1cccc(O)c1)N1CCC(Nc2ccccc2)C1 (centres unmarked) [Z4508]	0.37	–
Cc1nc2c(C(=O)OCc3ccnc(N(C)C)c3)ccnc2[nH]1 [Z4620]	1.08	–
COC(=O)CC1CN(c2ncnc3[nH]ccc23)c2ccccc21 (centres unmarked) [Z4911]	0.79	–
Nc1cc(-c2noc(CCn3cccn3)n2)ncn1 [Z5086]	1.48	–
CC1c2ccc(F)cc2CCN1C(=O)c1cccc(O)c1 (centres unmarked) [Z5167]	0	–
Cc1nc(Cc2noc(Cc3ccc4[nH]ncc4c3)n2)no1 [Z5262]	0.45	–
Fc1ccc(F)c(Sc2ncnc3[nH]ccc23)c1 [Z5289]	1.24	–
Cc1csc(=Nc2ccccc2)n1Cc1nnc2n1CCNC2=O [Z5356]	0.51	–
O=C(c1c(F)ccc(O)c1F)N1CCC(Oc2cccc(F)c2)C1 (centres unmarked) [Z5547]	0.07	–
CC(c1ccc(Cl)c(Cl)c1)S(=O)(=O)Cc1cn[nH]c1 (centres unmarked) [Z5728]	0	–
Nc1ncnc2c1ncn2CCCc1ccsc1 [Z5972]	0.51	–
Cc1ccc(-c2noc(C3CC(=O)N(c4cn[nH]c4)C3)n2)cc1 (centres unmarked) [Z6019]	0.27	–
CNc1cc(-c2noc(CN3CCCC3=O)n2)ncn1 [Z6028]	0.33	–

Compound	DSF max dTma (SARS-CoV-2 NSP3 Mac1 [1]) [°C]	HIT* (SARS-CoV-2 NSP3 Mac1 [2])
N#Cc1cccc(-n2ccc(C(=O)OCc3cccnc3)n2)c1 [Z6395]	0.18	–
COc1ccc(-c2nnc(NC(=O)Cc3ncccc3F)s2)cc1 [Z6468]	0.58	–
Cc1nc(S(=O)(=O)NCc2ccc(-c3ccncc3)cc2)cn1C [Z7041]	0.35	–
Clc1cc2c(N3CCCC(c4nnc[nH]4)C3)ncnc2[nH]1 (centres unmarked) [Z7156]	0.86	–
Cc1cc(C)nc(CSc2nnc3c(=O)[nH]c4ccccc4n23)c1 [Z7570]	0.36	–
CN(Cc1nnc2c(=O)[nH]ccn12)c1nccc(C(F)(F)F)n1 [Z7665]	0.55	–
CN(Cc1nnc2c(=O)[nH]ccn12)c1cc(Cl)nc(C2CC2)n1 [Z7766]	0.14	–
CC1CCc2n[nH]cc2C1C(=O)N(C)OCc1ccccc1 (centres unmarked) [Z8074]	0.54	–
O=c1[nH]nc(C2CCCN(c3ncnc4[nH]c(Cl)cc34)C2)o1 (centres unmarked) [Z8387]	1.01	–
O=C(NC1c2cccc(O)c2CC1C(=O)O)c1ccc(Nc2cccnc2)cc1 (centres unmarked) [Z8539_0018]	–	Y
O=C1CSc2cc(C(=O)OC3c4ccccc4CC3F)ccc2N1 (centres unmarked) [Z8554]	0.13	–
O=C(Nc1cccnc1)Nc1nc2ccccc2c(=O)[nH]1 [Z8593]	0	–
O=C(NCc1nc2ccccc2c(=O)[nH]1)Nc1cccnc1 [Z8598]	0.22	–
O=C(Nc1cccnc1)Nc1ccc2ccccc2n1 [Z8614]	0.06	–
Cc1n[nH]c2ncc(CN3CC(C)Oc4c(F)cccc43)cc12 (centres unmarked) [Z8637]	0.16	–
CS(=O)(=O)C1CCCCN(c2ncnc3[nH]c4ccccc4c23)C1 (centres unmarked) [Z8648]	0.24	–
Clc1cc2c(N3CCCC(c4cccnc4)C3)ncnc2[nH]1 (centres unmarked) [Z8680]	0.25	–
